pEC50: −log10 of the molar value. Where a name gives a salt, the structure may show the parent alone.

In assay [1] the test system is NQO1 specific enzyme activity in BEAS-2B cells (marker for NRF2 activation). As to the kind of experiment: BEAS-2B NQO1 MTT Assay. It is filed as cell-based. Conditions: Homo sapiens, BEAS-2B, 48 h, NQO1 specific activity induction, 48 hours with compound. An outline of the steps:
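BEAS-2B cells were plated at 250,000 cells/mL and treated after overnight culture with compound for 48 h at 37° C, 5% CO2. NQO1 activity in crude lysates was read kinetically as MTT reduction at 570 nm over 30 min. pEC50 comes from ΔOD/min versus log concentration with a 3-parameter fit.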

Assay [2] relates to rats on a choline-deficient L-amino acid-defined diet. The settings on record: cited from earlier work.
The test system of assay [3] is COPD macrophages and alveolar macrophages from cigarette smoke-exposed mice. The settings on record: cited from earlier work.
Assay [4] relates to rats in a cerebral ischemia-reperfusion model. Conditions: cited from earlier work.
The test system of assay [5] is NRF2 wild-type and KO mice. Conditions: after administration, NRF2 wild-type vs KO mice; cited from earlier work.

As usually defined, the pEC50 is the negative decadic logarithm of the EC50, by convention in mol/L. Regarding `CC[C@@H]1CN(Cc2cc([C@@H](c3ccc4c(nnn4CC)c3C)C(C)(C)C(=O)Nc3nnn[nH]3)sc2C)S(=O)(=O)c2ccccc2O1` [Example 65, (S)-3-(4-(((R)-4-Ethyl-1,1-dioxido-3,4-dihydro-2H-benzo[b][1,4,5]oxathiazepin-2-yl)methyl)-5-methylthiophen-2-yl)-3-(1-ethyl-4-methyl-1H-benzo[d][1,2,3]triazol-5-yl)-2,2-dimethyl-N-(1H-tetrazol-5-yl)propanamide, 0.10Formic Acid Salt], the negative logarithm of the EC50 (pEC50) in assay [1] was 7.00 to 8.00. For the compound `O=C(NCc1ccccn1)Nc1nnc(-c2ccco2)o1` [NK-252], in assay [2], the “progression of histologic abnormalities, especially hepatic fibrosis” value is “significantly attenuated progression”. For the compound `C[S+]([O-])CCCCN=C=S` (stereo not shown) [Sulforaphane], the “expression of Macrophage Receptor with Collagenous structure (MARCO)” value in assay [3] (COPD macrophages and alveolar macrophages from cigarette smoke-exposed mice) is given as “increases the expression of Macrophage Receptor with Collagenous structure (MARCO)”. For the same compound, the “bacterial phagocytosis (Pseudomonas aeruginosa, non-typable Haemophilus influenzae) and bacterial clearance” value in assay [3] (ex vivo and in vivo) is “improving in these cells bacterial phagocytosis”. Turning to `Cc1c(-c2cnccn2)ssc1=S` [oltipraz], the “progression of histologic abnormalities, especially hepatic fibrosis” value in assay [2] is recorded as “significantly attenuated progression”. As for `CC(C)(C)c1cc(O)ccc1O` [tBHQ, tert-butylhydroquinone], the cortical damage entry in assay [4] is “reduced cortical damage”. In addition, the cortical glutathione levels result in assay [5] is recorded as “increased in NRF2 wild-type but not KO mice”.

These data come from patent US11117905B2, “Bisaryl heterocycles as NRF2 activators” (GLAXOSMITHKLINE INTELLECTUAL PROPERTY DEVELOPMENT LIMITED, priority 2016, dated 2021).
